We go through 3 compounds from US20250179057A1, “MEK IMMUNE ONCOLOGY INHIBITORS AND THERAPEUTIC USES THEREOF” (Immuneering Corporation, priority 2022, published 2025).

For orientation: IC50 means the point on the concentration scale where inhibition reaches its midpoint. For orientation: half-life means how long it takes for the measured level to halve.

Data set [1] relates to phospho-ERK in A549 (KRAS G12S) cells. Briefly: Cell-based pERK (pERK:tERK) in A549 cells. In short, it runs like this: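 Readout was pERK versus tERK by Western blot with IRDye-labelled secondary antibodies, imaged and quantified on a LI-COR Odyssey. Lysates were loaded at 1 mg/mL protein after Bradford estimation.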
Data set [2] has as its system phospho-MEK in A549 cells. Briefly: Cell-based pMEK (pMEK:tMEK, CRAF bypass) in A549 cells. As to conditions: 2 h, pMEK to total MEK normalized to DMSO control. In short, it runs like this:
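Cells (A549 or A375) exposed 2 h to compounds at varying concentrations in duplicate, then lysed; lysates set to 1.5 mg/mL for pMEK by quantitative Western (Jess). Phospho-MEK/total MEK ratio normalized to DMSO control.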

Data set [3] can be described thus: Kinetic solubility (PBS pH 7.4; 4 hr). In kind it is physicochemical. The note with it: PBS pH = 7.4; 4 hr (Table 8). On the procedure:
The plates were shaken for 4 h at room temperature in an Eppendorf Thermomixer. After incubation, the plates were centrifuged for 20 minutes at 4680 rpm. From the supernatant, 150 μL was transferred to a new 96 well plate and 50 μL DMSO was added to ensure continued dissolution. Samples were measured on LC-UV at injection volumes of 1 and 8 μL. Peak areas were determined and compared to peak areas obtained using calibration curves of the test compounds in DMSO.

Data set [4] can be described thus: eLogD (lipophilicity; pH 7.4) by HPLC. In kind it is physicochemical. On the procedure:
Test compounds were dissolved in DMSO at a concentration of 10 mM and further diluted with methanol:water 1:1. Samples were analyzed using gradient HPLC with three different isocratic mobile phases of 0.25% octanol in methanol (60, 65 and 70%) and 20 mM MOPS buffer (pH 7.4) with decylamine. If needed, (for low E log Doct compounds) the isocratic mobile phases were adjusted to e.g. 40, 45 and 50% methanol. Peaks were detected using a diode array at absorbance 220-320 nm.
Capacity factors data (k′_=(tr−_t0)/t0) obtained at various amounts of methanol were extrapolated to 0% methanol and k′w values are determined using a linear procedure. E log Doct (7.4) is calculated using a series of reference standards with known Log D values. Each experiment was performed in triplicate.

The nature of data set [5]: PAMPA (pH 7.4). The note with it: pH = 7.4. In kind it is in vitro ADME. A general note: In PAMPA a lipid-coated filter parts donor from acceptor wells.
A short description of data set [6]: Mouse liver microsome stability (t1/2, Clint). The note with it: 1 μM; 0.5 mg/ml microsomal protein.
Data set [7] is described as follows: Human liver microsome stability (t1/2, Clint). The note with it: 1 μM; 0.5 mg/ml microsomal protein.
The conditions of data set [8]: Guo et al Lancet Oncol. 2020; cited from earlier work.
Data set [9] can be described thus: Plasma stability, human plasma (K2EDTA). In kind it is in vitro ADME. As to conditions: human, pH 7.4. On the procedure: (§1) Individual stock solutions of propantheline and lovastatin were prepared at 10 mM in DMSO and were further diluted to 2 mM with DMSO.
(§2) Frozen matrices (Balb/c mouse, Wistar Han rat, Beagle dog, and human plasma containing K2EDTA as anti-coagulant) were thawed and centrifuged at 3100 rpm for 10 minutes at 4° C. to remove particulates. The lipid layer was then removed, and the supernatant was transferred to a new tube without disturbing the pellet. After the matrices were incubated at 37° C. for at least 10 minutes, the pH of each matrix was adjusted to pH 7.4, using 10% phosphoric acid or 1N sodium hydroxide as necessary. Test and control article stock solutions were spiked (2 μL) into matrix (1.998 mL) and mixed to final assay concentration of […]. Duplicate 30-μL aliquots of spiked plasma were transferred to matrix tubes in 96-well plate immediately after spiking for timepoints of 0, 30, 60, 120, 240, and 360 minutes. These tubes were then incubated at 37° C. with shaking and at each timepoint, the corresponding tubes containing samples were quenched with 180 μL of cold acetonitrile containing the internal standards. The quenched samples were vortex-mixed briefly and stored refrigerated. After the final time point (360 minutes), the plates with all quenched samples were vortex-mixed for 10 minutes and then centrifuged at 3100 rpm for 10 minutes at 4° C. to sediment the precipitated protein. The supernatant (50 μL) was transferred to a clean 96-well plate and diluted with 100 μL of water. The plates were stored refrigerated until analysis.
(§3) Data Analysis: Peak area ratios for IS-normalized test article and control article counts were used to calculate the percent remaining relative to the time zero (T0) value. As appropriate, results were plotted and further analyzed to calculate half-life (T1/2) values.
(§4) Mean peak area ratios were used to calculate the % remaining relative to the T0 value:
(§5) In this study, human, cynomolgus monkey, beagle dog, wistar hannover rat, and balb/c plasma stability was determined. Table 28 describes the results of the human plasma stability at 2 μM concentration and anti-coagulant K2-EDTA from 10 to 120 min. Table 29 describes the results of the cynomolgus monkey plasma stability at 2 μM concentration and anti-coagulant K2-EDTA. Table 30 describes the results of the beagle dog plasma stability at 2 μM concentration and anti-coagulant K2-EDTA. Table 31 describes the results of the wistar hannover rat plasma stability at 2 μM concentration and anti-coagulant K2-EDTA. Table 32 describes the results of the balb/c plasma stability at 2 μM concentration and anti-coagulant K2-EDTA.

Data set [10] in a line: Plasma stability, cynomolgus monkey plasma (K2-EDTA). In kind it is in vitro ADME. On the procedure: as §1, §2, §3, §4, §5
A short description of data set [11]: Plasma stability, beagle dog plasma (K2EDTA). In kind it is in vitro ADME. As to conditions: beagle, dog, pH 7.4. How it is done:
as §1, §2, §3, §4, §5

Data set [12] can be described thus: Plasma stability, rat plasma (Wistar Han / wistar hannover; Table 5 head SD Rat). In kind it is in vitro ADME. The note with it: Wistar Hannover, rat, plasma, pH 7.4. On the procedure: as §1, §2, §3, §4, §5
Data set [13] can be described thus: Plasma stability, mouse plasma (Balb/c; Table 5 head CD-1 Mouse). In kind it is in vitro ADME. As to conditions: BALB/c, mouse, plasma, pH 7.4. On the procedure: as §1, §2, §3, §4, §5
Assay in data set [14]: as above
In kind it is in vitro ADME. As to conditions: CD-1, mouse, 2 h, 2 μM, pH 7.4.

Turning to `CNS(=O)(=O)Nc1cccc(Cc2c(CN3CCC3)c3cc(Cl)c(OC(=O)N(C)C)cc3oc2=O)c1F` [Compound 19], the “A549-pERK (10 nM, 2 h)” value in data set [1] (10 nM, 2 h, phospho- to total protein ratio normalized to DMSO control (Table 9)) worked out at 59.9. The compound further gave an IC50 in data set [1] (A549, 12-point dose) of 40 to 50 nM. The “A549-CRAF BP 100 nM, 2 h” value in data set [2] stood at 51.9. In addition, in data set [3], the “Kinetic Solubility (PBS pH = 7.4; 4 hr)” value is above 80 uM. Besides, in data set [4], the “eLogD (lipophilicity; pH = 7.4)” value is recorded as 2.9. For the same compound, the “PAMPA (pH = 7.4; Papp 10^−6 cm/s)” value in data set [5] is reported as 51 10^−6 cm/s. Besides, in [6], the “Mouse Clint” value is 26 µL/min/mg and the “Mouse Microsome (t1/2 min)” value was determined as 0.883 h. In addition, in data set [7], the “Human Clint” value worked out at 37 µL/min/mg and the “Human Microsome (t1/2 min)” value stood at 0.633 h.

In the case of `CNS(=O)(=O)Nc1nccc(Cc2c(C)c3ccc(Oc4ncccn4)cc3oc2=O)c1F` [VS-6766], the mean terminal half-life in data set [8] was 53.6 h.

On to `CC(C)[N+](C)(CCOC(=O)C1c2ccccc2Oc2ccccc21)C(C)C` [Propantheline, reference compound], for which, in data set [9] (2 h, 2 μM), the “Human (% Reamining @2 hour)” value came to 5.7%. The “% Remaining at T120” value in data set [9] (plasma, 2 h, 2 μM) came out at 20.8%; in [10] (2 μM, anti-coagulant K2-EDTA, 120 min), 84.6%; in data set [11] (plasma, 2 h, 2 μM) it was 71.0%; in data set [12] (2 h, 2 μM), 115.2%; in data set [13] (2 h, 2 μM), 37.3%. Further, the half-life at 2 μM in data set [9] (plasma) is 0.943 h; in data set [10] (plasma (K2EDTA), pH 7.4, anti-coagulant K2-EDTA), 7.5 h; in [11] (plasma), 4.87 h; in data set [12], above 2 h; in [13] it was 1.68 h. Also, the “Beagle Dog (% Reamining @2 hour)” value in [11] (2 h, 2 μM) is listed as 58.4%. Also, the “CD-1 Mouse (% Reamining @2 hour)” value in data set [14] was 27.1%.
